Data on 27 compounds can be found in US10273237B2, “Imidazopyridazine compounds useful as modulators of IL-12, IL-23 and/or IFN-α responses” (BRISTOL-MYERS SQUIBB COMPANY, priority 2013, dated 2019).

The first assay relates to IFNα-stimulated Kit225 T cells with STAT-dependent luciferase reporter. Nature of the assay: Kit225 T cell assay, STAT-dependent luciferase reporter, IFNα stimulated. It counts as cell-based, human. The note with it: 200 U/mL human recombinant IFNα, 5-6 hours, read-out: IFNa Kit225 Reporter, LE (IC50). On the procedure: (§1) Kit225 T cells with a stably-integrated STAT-dependent luciferase reporter were plated in RPMI (GIBCO) containing 10% heat-inactivated FBS (GIBCO) and 100 U/mL PenStrep (GIBCO). The cells were then stimulated with either 20 ng/mL human recombinant IL-23 or 200 U/mL human recombinant IFNα (PBL InterferonSource) for 5-6 hours. Luciferase expression was measured using the STEADY-GLO® Luciferase Assay System (PROMEGA®) according to the manufacturer's instructions.
Background: A reporter such as luciferase makes a cellular process visible.
As for `CNc1cc(Nc2cccn(-c3ccccc3)c2=O)nn2c(C(=O)NCc3nccs3)cnc12` [Example 182], the IC50 was determined as 0.27 µM.
Same read-out and setting: as for `CNc1cc(Nc2cccn(-c3ccccc3)c2=O)nn2c(C(=O)NC3CCCC3O)cnc12` (stereo not drawn) [Example 189], the figure is 0.19 µM; as for `CNc1cc(Nc2cccn(-c3ccccc3)c2=O)nn2c(C(=O)N[C@@H]3C[C@@H]3F)cnc12` [Example 191], 0.02 µM; as for `CNc1cc(Nc2cccn(-c3cccc(F)n3)c2=O)nn2c(C(=O)NCc3nccs3)cnc12` [Example 192], 0.18 µM.
Turning to `CNc1cc(Nc2cccn(-c3cccc(F)n3)c2=O)nn2c(C(=O)NCc3ccccn3)cnc12` [Example 193], the IC50 is 0.33 µM.
Consider `CNc1cc(Nc2cccn(-c3nnc(C)s3)c2=O)nn2c(C(=O)N[C@@H]3C[C@@H]3F)cnc12` [Example 195], for which the IC50 was determined as 0.06 µM.
Take `CNc1cc(Nc2ccnn(-c3cccc(C#N)c3)c2=O)nn2c(C(=O)N[C@@H]3C[C@@H]3F)cnc12` [Example 196]: the IC50 stood at 0.04 µM.
Regarding `CNc1cc(Nc2cccn(-c3ccc(C)nn3)c2=O)nn2c(C(=O)NCC(C)C)cnc12` [Example 200], the IC50 amounted to 0.26 µM.
`CNc1cc(Nc2cccn(-c3cnn(C)c3)c2=O)nn2c(C(=O)NC3CC3)cnc12` [Example 203]: the IC50 was determined as 0.2 µM.
As to `CNc1cc(Nc2cccn(-c3ccc(OC)nc3)c2=O)nn2c(C(=O)NC3CC3)cnc12` [Example 204], the half-maximal inhibitory concentration (IC50) stood at 0.1 µM.
The same measure, in the same setting: under `CNc1ccc(-n2cccc(Nc3cc(NC)c4ncc(C(=O)NC5CC5)n4n3)c2=O)cn1` [Example 206] stands 0.38 µM; under `CNc1cc(Nc2cccn(C)c2=O)nn2c(C(=O)NC3CCCC3)cnc12` [Example 208], 0.06 µM.
Still for that read-out and setting: as for `CNc1cc(Nc2cccn(C)c2=O)nn2c(C(=O)NC(C)C)cnc12` [Example 209], the figure is 0.33 µM; as for `CCNC(=O)c1cnc2c(NC)cc(Nc3cccn(C)c3=O)nn12` [Example 210], 0.39 µM; as for `CNc1cc(Nc2cccn(C)c2=O)nn2c(C(=O)Nc3ccccc3)cnc12` [Example 212], 2.48 µM.
Turning to `CNc1cc(Nc2cccn(C(C)C)c2=O)nn2c(C(=O)NC3CC3)cnc12` [Example 213], the IC50 is 0.42 µM.
As to `CNc1cc(Nc2cccn(C)c2=O)nn2c(C(=O)NC3CCCCC3C)cnc12` (stereo not drawn) [Example 215], the 50% inhibitory concentration (IC50) amounted to 0.3 µM.
In the case of `CNc1cc(Nc2cccn(C(C)C)c2=O)nn2c(C(=O)NC3(C#N)CC3)cnc12` [Example 216], the IC50 was found to be 0.44 µM.
Regarding `CNc1cc(Nc2cccn(C(C)C)c2=O)nn2c(C(=O)NCC(C)(C)CO)cnc12` [Example 217], the IC50 was determined as 0.1 µM.
Consider `CNc1cc(Nc2cccn(C(C)(C)C)c2=O)nn2c(C(=O)NC3CC3)cnc12` [Example 218], for which the IC50 worked out at 0.13 µM.
`CNc1cc(Nc2cccn(C(C)(C)C)c2=O)nn2c(C(=O)NC3(C#N)CC3)cnc12` [Example 219]: the IC50 came to 0.07 µM.
On to `CNc1cc(Nc2cccn(C3CCOC3)c2=O)nn2c(C(=O)NC3CC3)cnc12` (stereo not drawn) [Example 220], for which the IC50 came to 0.28 µM.
As for `CNc1cc(Nc2cccn(C3CCOC3)c2=O)nn2c(C(=O)NC3CCC3)cnc12` (stereo not drawn) [Example 221], the 50% inhibitory concentration (IC50) came out at 0.14 µM.
With `CNc1cc(Nc2cccn(C3CCOC3)c2=O)nn2c(C(=O)NC3CCCC3)cnc12` (stereo not drawn) [Example 222], the IC50 is 0.13 µM.
For the compound `CNc1cc(Nc2cccn(-c3nc4ccccc4[nH]3)c2=O)nn2c(C(=O)NC3CC3)cnc12` [Example 223], the IC50 is 0.24 µM.
Consider `CNc1cc(Nc2cccn(C3CCC(N4CCOCC4)CC3)c2=O)nn2c(C(=O)NC3CC3)cnc12` (stereo not drawn) [Example 224], for which the IC50 came to 0.47 µM.
Still for that read-out and setting: under `CNc1cc(Nc2cccn(C3CCC(N4CCOCC4)CC3)c2=O)nn2c(C(=O)NC3CCC3)cnc12` (stereo not drawn) [Example 225] stands 0.03 µM.

The next assay has as its system IL-23-stimulated Kit225 T cells with STAT-dependent luciferase reporter. Description: Kit225 T cell assay, STAT-dependent luciferase reporter, IL-23 stimulated. The note with it: 20 ng/mL human recombinant IL-23, 5-6 hours, read-out: IL-23 Kit225 Reporter, LE (IC50). It counts as cell-based, human. On the procedure: as §1
Regarding `CNc1cc(Nc2cccn(-c3ccccc3)c2=O)nn2c(C(=O)NCc3nccs3)cnc12` [Example 182], the IC50 was 0.22 µM.
Still for that read-out and setting: as for `CNc1cc(Nc2cccn(-c3ccccc3)c2=O)nn2c(C(=O)NC3CCCC3O)cnc12` (stereo not drawn) [Example 189], the figure is 0.23 µM; as for `CNc1cc(Nc2cccn(-c3ccccc3)c2=O)nn2c(C(=O)N[C@@H]3C[C@@H]3F)cnc12` [Example 191], 0.04 µM.
On the same count and under the same terms, as for `CNc1cc(Nc2cccn(-c3cccc(F)n3)c2=O)nn2c(C(=O)NCc3nccs3)cnc12` [Example 192], the figure is 0.23 µM; as for `CNc1cc(Nc2cccn(-c3cccc(F)n3)c2=O)nn2c(C(=O)NCc3ccccn3)cnc12` [Example 193], 0.14 µM; as for `CNc1cc(Nc2cccn(-c3nnc(C)s3)c2=O)nn2c(C(=O)N[C@@H]3C[C@@H]3F)cnc12` [Example 195], 0.11 µM.
Regarding `CNc1cc(Nc2ccnn(-c3cccc(C#N)c3)c2=O)nn2c(C(=O)N[C@@H]3C[C@@H]3F)cnc12` [Example 196], the IC50 was 0.16 µM.
With `CNc1cc(Nc2cccn(-c3ccc(C)nn3)c2=O)nn2c(C(=O)NCC(C)C)cnc12` [Example 200], the half-inhibitory concentration (IC50) was found to be 0.11 µM.
The same measure, in the same setting: under `CNc1cc(Nc2cccn(-c3cnn(C)c3)c2=O)nn2c(C(=O)NC3CC3)cnc12` [Example 203] stands 0.19 µM; under `CNc1cc(Nc2cccn(-c3ccc(OC)nc3)c2=O)nn2c(C(=O)NC3CC3)cnc12` [Example 204], 0.07 µM; under `CNc1ccc(-n2cccc(Nc3cc(NC)c4ncc(C(=O)NC5CC5)n4n3)c2=O)cn1` [Example 206], 0.49 µM.
As to `CNc1cc(Nc2cccn(C)c2=O)nn2c(C(=O)NC3CCCC3)cnc12` [Example 208], the IC50 turned out to be 0.08 µM.
For `CNc1cc(Nc2cccn(C)c2=O)nn2c(C(=O)NC(C)C)cnc12` [Example 209], the IC50 was determined as 0.18 µM.
For `CCNC(=O)c1cnc2c(NC)cc(Nc3cccn(C)c3=O)nn12` [Example 210], the IC50 came to 0.22 µM.
In the case of `CNc1cc(Nc2cccn(C)c2=O)nn2c(C(=O)Nc3ccccc3)cnc12` [Example 212], the IC50 turned out to be 0.11 µM.
Same read-out and setting: under `CNc1cc(Nc2cccn(C(C)C)c2=O)nn2c(C(=O)NC3CC3)cnc12` [Example 213] stands 0.23 µM; under `CNc1cc(Nc2cccn(C)c2=O)nn2c(C(=O)NC3CCCCC3C)cnc12` (stereo not drawn) [Example 215], 0.19 µM; under `CNc1cc(Nc2cccn(C(C)C)c2=O)nn2c(C(=O)NC3(C#N)CC3)cnc12` [Example 216], 0.9 µM.
For the compound `CNc1cc(Nc2cccn(C(C)C)c2=O)nn2c(C(=O)NCC(C)(C)CO)cnc12` [Example 217], the IC50 stood at 0.09 µM.
`CNc1cc(Nc2cccn(C(C)(C)C)c2=O)nn2c(C(=O)NC3CC3)cnc12` [Example 218]: the IC50 was 0.19 µM.
Turning to `CNc1cc(Nc2cccn(C(C)(C)C)c2=O)nn2c(C(=O)NC3(C#N)CC3)cnc12` [Example 219], the IC50 came to 0.25 µM.
Take `CNc1cc(Nc2cccn(C3CCOC3)c2=O)nn2c(C(=O)NC3CC3)cnc12` (stereo not drawn) [Example 220]: the IC50 is 0.17 µM.
As to `CNc1cc(Nc2cccn(C3CCOC3)c2=O)nn2c(C(=O)NC3CCC3)cnc12` (stereo not drawn) [Example 221], the IC50 amounted to 0.5 µM.
Regarding `CNc1cc(Nc2cccn(C3CCOC3)c2=O)nn2c(C(=O)NC3CCCC3)cnc12` (stereo not drawn) [Example 222], the IC50 was determined as 0.29 µM.
Regarding `CNc1cc(Nc2cccn(-c3nc4ccccc4[nH]3)c2=O)nn2c(C(=O)NC3CC3)cnc12` [Example 223], the IC50 was found to be 1.18 µM.
On the same count and under the same terms, under `CNc1cc(Nc2cccn(C3CCC(N4CCOCC4)CC3)c2=O)nn2c(C(=O)NC3CC3)cnc12` (stereo not drawn) [Example 224] stands 0.68 µM; under `CNc1cc(Nc2cccn(C3CCC(N4CCOCC4)CC3)c2=O)nn2c(C(=O)NC3CCC3)cnc12` (stereo not drawn) [Example 225], 0.1 µM.

For orientation: IC50 means the point on the concentration scale where inhibition reaches its midpoint.
